Paper PMC4552634, “A New Set of Chemical Starting Points with Plasmodium falciparum Transmission-Blocking Potential for Antimalarial Drug Discovery” (PLoS ONE, 2015)
Where two headings read alike, the source gives them in different places.

What was measured:
[1] = system: P. falciparum stage V gametocytes; assay: Gametocytocidal ATP bioluminescence assay (single point 5 μM and 1 μM, dose-response); type: cell-based, Plasmodium falciparum; conditions: for Ratio IC50 HepG2/IC50 P. falciparum: IC50 HepG2 divided by IC50 P. falciparum gametocytes
Method: Purified stage IV-V gametocytes were obtained as previously described [10]. Single point ATP bioluminescence assay and dose–response of positive hits was determined in accordance with the previously published protocol [10].

HepG2 cells = assay: Cytotoxicity in HepG2 cells (intracellular ATP, ATPlite, 48 h); type: cell-based, human; conditions: HepG2 cells; IC50 per ratio column head; unit inferred
[2] = system: P. falciparum asexual stages; conditions: asexual stages; TCAMS data; read-out: IC50 asexual; cited from earlier work
[3] = P. falciparum gametocytes, average, read-out: IC50 Pf Gametocytes average, IC50 (µM) average
[4] = sexual stages (gametocytes), dose-response, read-out: IC50 sexual

COc1cccc(OC)c1CN1CCC(N(C)CCCCCCCCN2CCC(OC(=O)Nc3ccccc3-c3ccccc3)CC2)CC1 [TCMDC-134684]
Ratio IC50 HepG2/IC50 P. falciparum [1]: 3.29
IC50 [1, 3]: 1.04 µM
IC50 [1, 4]: 1.03 µM
IC50 (HepG2 cells): 3.4 µM
IC50 [2]: 0.458 µM

COc1cccc(OC)c1CN1CCC(N(C)CCCCCCCCCN2CCC(OC(=O)Nc3ccccc3-c3ccccc3)CC2)CC1 [TCMDC-134690]
Ratio IC50 HepG2/IC50 P. falciparum [1]: <6
IC50 [1, 3]: 0.26 µM
IC50 [1, 4]: 0.255 µM
IC50 (HepG2 cells): < 1.56 µM
IC50 [2]: 0.319 µM

Cc1cc(N[C@@H](Cc2ccccc2)C(=O)NCCc2ccccc2)nc(NCCc2ccccc2)n1 [TCMDC-134776]
Ratio IC50 HepG2/IC50 P. falciparum [1]: <1
IC50 [1, 3]: > 10 µM
IC50 (HepG2 cells): 13.6 µM
IC50 [2]: 0.85 µM

COc1ccccc1CCNc1nc(C)cc(N[C@@H](Cc2ccccc2)C(=O)NCCOc2ccccc2)n1 [TCMDC-134862]
Ratio IC50 HepG2/IC50 P. falciparum [1]: <1
IC50 [1, 3]: > 10 µM
IC50 (HepG2 cells): 11.1 µM
IC50 [2]: 1.21 µM

COc1ccccc1CCNc1nc(C)cc(N[C@@H](Cc2ccccc2)C(=O)NCc2cccc(F)c2)n1 [TCMDC-134893]
Ratio IC50 HepG2/IC50 P. falciparum [1]: 1.19
IC50 [1, 3]: 5.3 µM
IC50 (HepG2 cells): 6.3 µM
IC50 [2]: 0.867 µM

CCn1c(Sc2ccc([N+](=O)[O-])c(C#N)c2)nnc1-c1cccc(Cl)c1 [TCMDC-135234]
Ratio IC50 HepG2/IC50 P. falciparum [1]: >8
IC50 [1, 3]: 3.04 µM
IC50 (HepG2 cells): > 25 µM
IC50 [2]: 0.873 µM

CCn1c(-c2nonc2N)nc2c(-c3cc4ccccc4s3)ncc(C(=O)N3CCC(N)C3)c21 (stereo not drawn) [TCMDC-135281]
Ratio IC50 HepG2/IC50 P. falciparum [1]: 10
IC50 [1, 3]: 0.35 µM
IC50 (HepG2 cells): 3.5 µM
IC50 [2]: 0.871 µM

COc1cc2ccccc2cc1OCCCN1CCN(CC(c2ccc(F)cc2)N2CCN(C(C)C)CC2)CC1 (stereo not drawn) [TCMDC-135496]
Ratio IC50 HepG2/IC50 P. falciparum [1]: 3
IC50 [1, 3]: 1.25 µM
IC50 [1, 4]: 1.25 µM
IC50 (HepG2 cells): 3.72 µM
IC50 [2]: 0.749 µM

CC(C)(C)N1CCC(N(Cc2ccc(-c3ccc(C(F)(F)F)cc3)cc2)C(=O)Cn2c(CCc3cccc(F)c3F)cc(=O)c3cccnc32)CC1 [TCMDC-136011]
Ratio IC50 HepG2/IC50 P. falciparum [1]: 1.3
IC50 [1, 3]: 2.39 µM
IC50 (HepG2 cells): 3.1 µM
IC50 [2]: 0.705 µM

CCn1c(-c2nonc2N)nc2c(-c3cccc(NC(=O)Nc4ccccc4OC)c3)ncc(OCCCN)c21 [TCMDC-136190]
Ratio IC50 HepG2/IC50 P. falciparum [1]: 14
IC50 [1, 3]: 0.44 µM
IC50 [1, 4]: 0.435 µM
IC50 (HepG2 cells): 5.9 µM
IC50 [2]: 1 µM

CCn1c(-c2nonc2N)nc2c(-c3cccc(NC(=O)Nc4cccc(Cl)c4)c3)ncc(OCCCN)c21 [TCMDC-136193]
Ratio IC50 HepG2/IC50 P. falciparum [1]: 7
IC50 [1, 3]: 2.17 µM
IC50 [1, 4]: 2.17 µM
IC50 (HepG2 cells): 14.5 µM
IC50 [2]: 0.941 µM

CCn1c(-c2nonc2N)nc2c(-c3cccc(NC(=O)Nc4cccc(C#N)c4)c3)ncc(OCCCN)c21 [TCMDC-136195]
Ratio IC50 HepG2/IC50 P. falciparum [1]: 7
IC50 [1, 3]: 3.51 µM
IC50 [1, 4]: 3.52 µM
IC50 (HepG2 cells): 24.7 µM
IC50 [2]: 0.669 µM

NCCCOc1cnc(-c2ccccc2)c2nc(-c3nonc3N)n(CCc3ccccc3)c12 [TCMDC-136216]
Ratio IC50 HepG2/IC50 P. falciparum [1]: 4
IC50 [1, 3]: 1.4 µM
IC50 (HepG2 cells): 5.61 µM
IC50 [2]: 1.27 µM

O=C(Nc1ccc(F)c(C(F)(F)F)c1)NC1CCN(CCCCCNC(=O)C2CC2c2ccc(Cl)c(Cl)c2)CC1 (stereo not drawn) [TCMDC-136259]
Ratio IC50 HepG2/IC50 P. falciparum [1]: 1.47
IC50 [1, 3]: 4.35 µM
IC50 (HepG2 cells): 6.4 µM
IC50 [2]: 0.663 µM

COc1cc(Br)c(S(=O)(=O)n2cc(CN3CCC(N)CC3)c3cc(Cl)ccc32)cc1OC [TCMDC-136384]
Ratio IC50 HepG2/IC50 P. falciparum [1]: 2.77
IC50 [1, 3]: 2.42 µM
IC50 [1, 4]: 2.42 µM
IC50 (HepG2 cells): 6.7 µM
IC50 [2]: 0.985 µM

CN1CCCN(Cc2cccc(-c3ccc(NS(=O)(=O)c4cccc5cccnc45)cc3)c2)CC1 [TCMDC-136481]
Ratio IC50 HepG2/IC50 P. falciparum [1]: <1
IC50 [1, 3]: > 10 µM
IC50 (HepG2 cells): 6.5 µM
IC50 [2]: 0.957 µM

Fc1ccc(N(c2nc(-c3cc(F)cc(C(F)(F)F)c3)cs2)C2CCNCC2)cc1 [TCMDC-136656]
Ratio IC50 HepG2/IC50 P. falciparum [1]: 2
IC50 [1, 3]: 3.28 µM
IC50 [1, 4]: 3.27 µM
IC50 (HepG2 cells): 6.6 µM
IC50 [2]: 0.956 µM

CCNCc1cccc(-c2ccc3ccnc(N)c3c2)c1 [TCMDC-136869]
Ratio IC50 HepG2/IC50 P. falciparum [1]: 7.56
IC50 [1, 3]: 1.66 µM
IC50 (HepG2 cells): 12.5 µM
IC50 [2]: 0.047 µM

FC(F)(F)COc1c(CCNCCCCNCCc2ccc3ccccc3c2OCC(F)(F)F)ccc2ccccc12 [TCMDC-137169]
Ratio IC50 HepG2/IC50 P. falciparum [1]: 28
IC50 [1, 3]: 0.1 µM
IC50 (HepG2 cells): 2.8 µM
IC50 [2]: 0.348 µM

CCN(CC)CCOc1ccc(C(O)(C#CC(O)(c2ccccc2)c2ccc(OCCN(CC)CC)cc2)c2ccccc2)cc1 (stereo not drawn) [TCMDC-137197]
Ratio IC50 HepG2/IC50 P. falciparum [1]: 5.34
IC50 [1, 3]: 0.69 µM
IC50 [1, 4]: 0.687 µM
IC50 (HepG2 cells): 3.67 µM
IC50 [2]: 1.31 µM

CCN(CC)CCOc1ccc(C(O)(C#CC(O)(c2ccc(C)cc2)c2ccc(OCCN(CC)CC)cc2)c2ccc(C)cc2)cc1 (stereo not drawn) [TCMDC-137198]
Ratio IC50 HepG2/IC50 P. falciparum [1]: 12
IC50 [1, 3]: 0.14 µM
IC50 (HepG2 cells): 1.62 µM
IC50 [2]: 0.903 µM

CCN(CC)CCOc1ccc(C(O)(C#CC(O)(c2ccc(OCCN(CC)CC)cc2)c2ccc([N+](=O)[O-])cc2)c2ccc([N+](=O)[O-])cc2)cc1 (stereo not drawn) [TCMDC-137201]
Ratio IC50 HepG2/IC50 P. falciparum [1]: 28
IC50 [1, 3]: 0.22 µM
IC50 [1, 4]: 0.224 µM
IC50 (HepG2 cells): 6.2 µM
IC50 [2]: 1.73 µM

CCc1cc(COc2ccc(CNCCC(C)C)cc2I)c(OCc2ccccc2)c(COc2ccc(CNCCC(C)C)cc2I)c1 [TCMDC-137255]
Ratio IC50 HepG2/IC50 P. falciparum [1]: 5.71
IC50 [1, 3]: 1.02 µM
IC50 [1, 4]: 1.01 µM
IC50 (HepG2 cells): 5.8 µM
IC50 [2]: 1.11 µM

CC(C)NCc1ccc(OCc2cccc(COc3ccc(CNC(C)C)cc3I)c2)c(I)c1 [TCMDC-137259]
Ratio IC50 HepG2/IC50 P. falciparum [1]: 23
IC50 [1, 3]: 0.21 µM
IC50 (HepG2 cells): 4.9 µM
IC50 [2]: 0.092 µM

CC(C)CCNCc1ccc(OCc2cccc(COc3ccc(CNCCC(C)C)cc3I)c2)c(I)c1 [TCMDC-137274]
Ratio IC50 HepG2/IC50 P. falciparum [1]: 14
IC50 [1, 3]: 0.37 µM
IC50 (HepG2 cells): 5.3 µM
IC50 [2]: 0.453 µM

FC(F)(F)COc1ccc(CCNCCCCNCCc2ccc(OCC(F)(F)F)c3ccccc23)c2ccccc12 [TCMDC-137282]
Ratio IC50 HepG2/IC50 P. falciparum [1]: 112
IC50 [1, 3]: 0.0267 µM
IC50 [1, 4]: 0.027 µM
IC50 (HepG2 cells): 3 µM
IC50 [2]: 0.648 µM

FC(F)(F)COc1ccc2ccccc2c1CCNCCCCNCCc1c(OCC(F)(F)F)ccc2ccccc12 [TCMDC-137317]
Ratio IC50 HepG2/IC50 P. falciparum [1]: 2.41
IC50 [1, 3]: 1.37 µM
IC50 (HepG2 cells): 3.3 µM
IC50 [2]: 0.426 µM

COc1ccc2c(c1CCNCCCCNCCc1c(OC)ccc3c1CCCC3)CCCC2 [TCMDC-137324]
Ratio IC50 HepG2/IC50 P. falciparum [1]: 5
IC50 [1, 3]: 0.15 µM
IC50 (HepG2 cells): 0.75 µM
IC50 [2]: 0.376 µM

C=CCOc1ccc2ccccc2c1CNCCCCCCNCc1c(OCC=C)ccc2ccccc12 [TCMDC-137340]
Ratio IC50 HepG2/IC50 P. falciparum [1]: <6
IC50 [1, 3]: 0.25 µM
IC50 (HepG2 cells): < 1.56 µM
IC50 [2]: 0.859 µM

CCCCCCN=C(N)c1ccc(OCCCCCOc2ccc(C(N)=NCCCCCC)cc2)cc1 [TCMDC-137619]
Ratio IC50 HepG2/IC50 P. falciparum [1]: 17
IC50 [1, 3]: 0.31 µM
IC50 [1, 4]: 0.309 µM
IC50 (HepG2 cells): 5.39 µM
IC50 [2]: 0.309 µM

c1ccc2c(NCCCCCCCCCNc3ccnc4ccccc34)ccnc2c1 [TCMDC-137750]
Ratio IC50 HepG2/IC50 P. falciparum [1]: 2.83
IC50 [1, 3]: 1.03 µM
IC50 [1, 4]: 1.02 µM
IC50 (HepG2 cells): 2.9 µM
IC50 [2]: 0.115 µM

c1ccc2c(NCCCCCCCCNc3ccnc4ccccc34)ccnc2c1 [TCMDC-137751]
Ratio IC50 HepG2/IC50 P. falciparum [1]: 3.46
IC50 [1, 3]: 1.08 µM
IC50 (HepG2 cells): 3.74 µM
IC50 [2]: 0.155 µM

CCOc1c(CCNCCCCNCCc2ccc3ccccc3c2OCC)ccc2ccccc12 [TCMDC-137759]
Ratio IC50 HepG2/IC50 P. falciparum [1]: <9
IC50 [1, 3]: 0.17 µM
IC50 [1, 4]: 0.173 µM
IC50 (HepG2 cells): < 1.56 µM
IC50 [2]: 0.596 µM
